Experimental data taken from patent publication US12203089B2, “Plants having increased tolerance to herbicides” (BASF SE, priority 2015, dated 2025).

Legend:
Format in all cases: in vivo
[1] = system: Arabidopsis thaliana expressing AtCesA1_G1009D_G1013R (SEQ ID 1); experiment: 48-well plate growth inhibition, T2 seeds, tolerance factor; settings: based on IC50 values of growth inhibition, seven to ten days after seeding
Protocol: (§1) Transgenic Arabidopsis thaliana plants (T2) are assayed for improved tolerance to azine herbicides like e. g. 6-cyclopentyl-N4-(2,3,4,5,6-pentafluorophenyl)-1,3,5-triazine-2,4-diamine in 48-well plates. Therefore, T2 seeds are surface sterilized by stirring for 5 min in ethanol+water (70+30 by volume), rinsing one time with ethanol+water (70+30 by volume) and two times with sterile, deionized water. The seeds are resuspended in 0.1% agar dissolved in water (w/v) Four to five seeds per well are plated on solid nutrient medium consisting of half-strength murashige skoog nutrient solution, pH 5.8 (Murashige and Skoog (1962) Physiologia Plantarum 15: 473-497). Compounds are dissolved in dimethylsulfoxid (DMSO) and added to the medium prior solidification (final DMSO concentration 0.1%). Multi well plates are incubated in a growth chamber at 22° C., 75% relative humidity and 110 μmol Phot*m^−2*s^−1 with 14:10 h light:dark photoperiod. Growth inhibition is evaluated seven to ten days after seeding in comparison to wild type plants. Tolerance factors are calculated based on IC50 values of growth inhibition of transformed versus non-transformed Arabidopsis plants.

[2] = system: Arabidopsis thaliana expressing AtCesA1_P1010L_G1013R (SEQ ID 1); experiment: as above; settings: based on IC50 values of growth inhibition, seven to ten days after seeding
Protocol: as §1

[3] = system: Arabidopsis thaliana expressing AtCesA3_wt (SEQ ID 3); experiment: as above; settings: based on IC50 values of growth inhibition, seven to ten days after seeding
Protocol: as §1

[4] = system: Arabidopsis thaliana expressing AtCesA3_S983F_S1040L (SEQ ID 3); experiment: as above; settings: based on IC50 values of growth inhibition, seven to ten days after seeding
Protocol: as §1

[5] = system: Arabidopsis thaliana expressing AtCesA1_wt (SEQ ID 1); experiment: as above; settings: based on IC50 values of growth inhibition, seven to ten days after seeding
Protocol: as §1

[6] = system: Arabidopsis thaliana expressing AtCesA3_S983F_S1037F (SEQ ID 3); experiment: as above; settings: based on IC50 values of growth inhibition, seven to ten days after seeding
Protocol: as §1

[7] = system: Brassica napus expressing BnaAnng01240D (SEQ ID 20) variant S1038F; experiment: Greenhouse herbicide tolerance, post emergent; settings: 7 days after treatment
Protocol: (§2) T1/T2 transgenic plants of Brassica napus containing cellulose synthase sequences or mutated gene variants thereof are tested for improved tolerance to herbicides in greenhouse studies with azine herbicides. For the pre-emergence treatment, the herbicides are applied directly after sowing by means of finely distributing nozzles. The containers are irrigated gently to promote germination and growth and subsequently covered with transparent plastic hoods until the plants have rooted. This cover causes uniform germination of the test plants, unless this has been impaired by the herbicides. For post emergence treatment, the test plants are first grown to a height of 3 to 15 cm, depending on the plant habit, and only then treated with the herbicides. For this purpose, the test plants are either sown directly, and grown in the same containers or they are first grown separately and transplanted into the test containers a few days prior to treatment.
(§3) Herbicide injury evaluations are taken at 1, 2 and 3 weeks after treatment. Plant biomass reduction is rated on a scale of 0% to 100%, 0% being no reduction of biomass compared to untreated control, and 100% being complete absence of biomass.

[8] = system: Brassica napus expressing BnaA03g55200D (SEQ ID 12) variant S1038F; experiment: Greenhouse herbicide tolerance, post emergent; settings: 7 days after treatment
Protocol: as §2, §3

[9] = system: Brassica napus expressing BnaA01g04600D (SEQ ID 21) variant G1012R; experiment: Greenhouse herbicide tolerance, post emergent; settings: 7 days after treatment
Protocol: as §2, §3

Brassica napus wildtype = experiment: Greenhouse herbicide tolerance, post emergent; settings: 7 days after treatment
Protocol: as §2, §3

[10] = system: Brassica napus expressing BnaA03g52020D (SEQ ID 15) variant G1015R; experiment: Greenhouse herbicide tolerance, post emergent; settings: 7 days after treatment
Protocol: as §2, §3

[11] = system: Brassica napus expressing BnaAnng01240D (SEQ ID 20) variant S1038F; experiment: 6-well plate injury test, T1 seeds on vermiculite; settings: 7 days after treatment
Protocol: (§4) Transgenic Brassica napus plants are assayed for improved tolerance to azine herbicides like e. g. 6-cyclopentyl-N4-(2,3,4,5,6-pentafluorophenyl)-1,3,5-triazine-2,4-diamine in 6-well plates. Therefore, 5-6 T1 seeds are sown on vermiculite and watered with half-strength murashige skoog nutrient solution, pH 5.8 (Murashige and Skoog (1962) Physiologia Plantarum 15: 473-497). Compounds are dissolved in dimethylsulfoxid (DMSO) and added to the medium (final DMSO concentration 0.1%). Multi well plates are incubated in a growth chamber at 22° C., 75% relative humidity and 110 μmol Phot*m^−2*s^−1 with 14: 10 h light: dark photoperiod. Growth inhibition is evaluated seven to ten days after seeding in comparison to wild type plants. Plant injury is rated on a scale of 0% to 100%, 0% being no injury and 100% being complete death.

[12] = system: Brassica napus expressing BnaAnng01240D (SEQ ID 20) variant S1041L; experiment: 6-well plate injury test, T1 seeds on vermiculite; settings: 7 days after treatment
Protocol: as §4

Question: `Nc1nc(Nc2c(F)c(F)c(F)c(F)c2F)nc(C2CCCC2)n1` [6-cyclopentyl-N4-(2,3,4,5,6-pentafluorophenyl)-1,3,5-triazine-2,4-diamine] was tested. Which “Relative tolerance rate as compared to non-transgenic Arabidopsis plants (non-transgenic = 1.0)” value (“Relative tolerance rate … (non-transgenic = 1.0)” below) [1] did it give?
Answer: 1

Question: And the “Relative tolerance rate … (non-transgenic = 1.0)” value [2]?
Answer: 30

Question: And the “Relative tolerance rate … (non-transgenic = 1.0)” value [3]?
Answer: 1

Question: What about the “Relative tolerance rate … (non-transgenic = 1.0)” value [4] of the same molecule?
Answer: 10

Question: What about the “Relative tolerance rate … (non-transgenic = 1.0)” value [5] of the same molecule?
Answer: 1

Question: And the “Relative tolerance rate … (non-transgenic = 1.0)” value [6]?
Answer: 10

Question: And the average phytotox value ([7]; 1st listed line, 3.9 g/ha)?
Answer: 1%

Question: What about the average phytotox value ([7]; 1st listed line, 7.8 g/ha) of the same molecule?
Answer: 5%

Question: And the average phytotox value ([7]; 1st listed line, 15.6 g/ha)?
Answer: 8%

Question: And the average phytotox value ([7]; 1st listed line, 31.25 g/ha)?
Answer: 27%

Question: And the average phytotox value ([7]; 2nd listed line, 3.9 g/ha)?
Answer: 1%

Question: And the average phytotox value ([7]; 2nd listed line, 7.8 g/ha)?
Answer: 10%

Question: What about the average phytotox value ([7]; 2nd listed line, 15.6 g/ha) of the same molecule?
Answer: 41%

Question: And the average phytotox value ([7]; 2nd listed line, 31.25 g/ha)?
Answer: 50%

Question: What about the average phytotox value ([8]; 1st listed line, 3.9 g/ha) of the same molecule?
Answer: 23%

Question: And the average phytotox value ([8]; 1st listed line, 7.8 g/ha)?
Answer: 25%

Question: And the average phytotox value ([8]; 1st listed line, 15.6 g/ha)?
Answer: 29%

Question: What about the average phytotox value ([8]; 1st listed line, 31.25 g/ha) of the same molecule?
Answer: 34%

Question: What about the average phytotox value ([8]; 2nd listed line, 3.9 g/ha) of the same molecule?
Answer: 7%

Question: What about the average phytotox value ([8]; 2nd listed line, 7.8 g/ha) of the same molecule?
Answer: 19%

Question: And the average phytotox value ([8]; 2nd listed line, 15.6 g/ha)?
Answer: 20%

Question: And the average phytotox value ([8]; 2nd listed line, 31.25 g/ha)?
Answer: 44%

Question: And the average phytotox value ([9]; 3.9 g/ha)?
Answer: 17%

Question: And the average phytotox value ([9]; 7.8 g/ha)?
Answer: 35%

Question: And the average phytotox value ([9]; 15.6 g/ha)?
Answer: 35%

Question: And the average phytotox value ([9]; 31.25 g/ha)?
Answer: 60%

Question: And the average phytotox value (Brassica napus wildtype; 3.9 g/ha)?
Answer: 23%

Question: What about the average phytotox value (Brassica napus wildtype; 7.8 g/ha) of the same molecule?
Answer: 34%

Question: What about the average phytotox value (Brassica napus wildtype; 15.6 g/ha) of the same molecule?
Answer: 59%

Question: What about the average phytotox value (Brassica napus wildtype; 31.25 g/ha) of the same molecule?
Answer: 73%

Question: And the average phytotox value ([10]; 1st listed line, 3.9 g/ha)?
Answer: 18%

Question: What about the average phytotox value ([10]; 1st listed line, 7.8 g/ha) of the same molecule?
Answer: 43%

Question: What about the average phytotox value ([10]; 1st listed line, 15.6 g/ha) of the same molecule?
Answer: 41%

Question: And the average phytotox value ([10]; 1st listed line, 31.25 g/ha)?
Answer: 53%

Question: What about the average phytotox value ([10]; 2nd listed line, 3.9 g/ha) of the same molecule?
Answer: 37%

Question: And the average phytotox value ([10]; 2nd listed line, 7.8 g/ha)?
Answer: 61%

Question: What about the average phytotox value ([10]; 2nd listed line, 15.6 g/ha) of the same molecule?
Answer: 45%

Question: What about the average phytotox value ([10]; 2nd listed line, 31.25 g/ha) of the same molecule?
Answer: 67%

Question: What about the average phytotox value ([11]; BnaAnng01240D S1038F event 1, 5*10^-8M) of the same molecule?
Answer: 50%

Question: What about the average phytotox value ([11]; BnaAnng01240D S1038F event 1, 10^-6M) of the same molecule?
Answer: 80%

Question: What about the average phytotox value ([11]; BnaAnng01240D S1038F event 1, 10^-7M) of the same molecule?
Answer: 60%

Question: What about the average phytotox value ([11]; BnaAnng01240D S1038F event 1, 10^-8M) of the same molecule?
Answer: 0%

Question: What about the average phytotox value ([11]; BnaAnng01240D S1038F event 1, 10^-9M) of the same molecule?
Answer: 0%

Question: What about the average phytotox value ([11]; BnaAnng01240D S1038F event 2, 5*10^-8M) of the same molecule?
Answer: 65%

Question: What about the average phytotox value ([11]; BnaAnng01240D S1038F event 2, 10^-6M) of the same molecule?
Answer: 80%

Question: What about the average phytotox value ([11]; BnaAnng01240D S1038F event 2, 10^-7M) of the same molecule?
Answer: 65%

Question: And the average phytotox value ([11]; BnaAnng01240D S1038F event 2, 10^-8M)?
Answer: 0%

Question: What about the average phytotox value ([11]; BnaAnng01240D S1038F event 2, 10^-9M) of the same molecule?
Answer: 0%

Question: What about the average phytotox value ([12]; BnaAnng01240D S1041L event 1, 5*10^-8M) of the same molecule?
Answer: 55%

Question: And the average phytotox value ([12]; BnaAnng01240D S1041L event 1, 10^-6M)?
Answer: 80%

Question: And the average phytotox value ([12]; BnaAnng01240D S1041L event 1, 10^-7M)?
Answer: 70%

Question: What about the average phytotox value ([12]; BnaAnng01240D S1041L event 1, 10^-8M) of the same molecule?
Answer: 0%

Question: And the average phytotox value ([12]; BnaAnng01240D S1041L event 1, 10^-9M)?
Answer: 0%

Question: What about the average phytotox value ([12]; BnaAnng01240D S1041L event 2, 5*10^-8M) of the same molecule?
Answer: 65%

Question: What about the average phytotox value ([12]; BnaAnng01240D S1041L event 2, 10^-6M) of the same molecule?
Answer: 80%

Question: What about the average phytotox value ([12]; BnaAnng01240D S1041L event 2, 10^-7M) of the same molecule?
Answer: 80%

Question: And the average phytotox value ([12]; BnaAnng01240D S1041L event 2, 10^-8M)?
Answer: 0%

Question: What about the average phytotox value ([12]; BnaAnng01240D S1041L event 2, 10^-9M) of the same molecule?
Answer: 0%
